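GI50 = concentration required for 50% inhibition of growth. TGI: total growth inhibition.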
Experiments:
Assay in all cases: NCI anticancer screen, dose series, 384-well format
HS 578T breast = test system: HS 578T breast
U251 glioblastoma = test system: U251 glioblastoma
COLO 205 colon = test system: COLO 205 colon
HCT-116 colon = test system: HCT-116 colon
SF-268 CNS = test system: SF-268 CNS
SN12C renal = test system: SN12C renal
A549 NSCLC = test system: A549 NSCLC
SK-MEL-2 melanoma = test system: SK-MEL-2 melanoma
NCI-H460 NSCLC = test system: NCI-H460 NSCLC
LOX IMVI melanoma = test system: LOX IMVI melanoma
A498 renal = test system: A498 renal
OVCAR-3 ovarian = test system: OVCAR-3 ovarian
MCF7 breast = test system: MCF7 breast
IGROV1 ovarian = test system: IGROV1 ovarian
HCT-15 colon = test system: HCT-15 colon
T-47D breast = test system: T-47D breast
SK-MEL-28 melanoma = test system: SK-MEL-28 melanoma
CAKI-1 renal = test system: CAKI-1 renal
MDA-MB-231 breast = test system: MDA-MB-231 breast
EKVX NSCLC = test system: EKVX NSCLC
M14 melanoma = test system: M14 melanoma
SW-620 colon = test system: SW-620 colon
SR leukemia = test system: SR leukemia
UACC-62 melanoma = test system: UACC-62 melanoma
K-562 leukemia = test system: K-562 leukemia
SF-539 CNS = test system: SF-539 CNS
SNB-75 CNS = test system: SNB-75 CNS
RXF 393 renal = test system: RXF 393 renal
HCC-2998 colon = test system: HCC-2998 colon
CCRF-CEM leukemia = test system: CCRF-CEM leukemia
ACHN renal = test system: ACHN renal
HOP-92 NSCLC = test system: HOP-92 NSCLC
OVCAR-5 ovarian = test system: OVCAR-5 ovarian
PC-3 prostate = test system: PC-3 prostate
HL-60(TB) leukemia = test system: HL-60(TB) leukemia
KM12 colon = test system: KM12 colon
NCI-H226 lung = test system: NCI-H226 lung
MDA-MB-468 breast = test system: MDA-MB-468 breast
SF-295 CNS = test system: SF-295 CNS
786-0 renal = test system: 786-0 renal
SNB-19 CNS = test system: SNB-19 CNS
UACC-257 melanoma = test system: UACC-257 melanoma
MDA-MB-435 melanoma = test system: MDA-MB-435 melanoma
MOLT-4 leukemia = test system: MOLT-4 leukemia
HOP-62 NSCLC = test system: HOP-62 NSCLC
SK-MEL-5 melanoma = test system: SK-MEL-5 melanoma
NCI-H23 lung = test system: NCI-H23 lung

Work on `Cn1cc(-c2cc3c(N4CCN(c5ncc([C@@](C)(N)c6ccc(F)cc6)cn5)CC4)ncnn3c2)cn1` yielded a GI50 (HS 578T breast) of 1.75 µM, a TGI (HS 578T breast) of 5.83 µM and a GI50 (U251 glioblastoma) of 3.54 µM. The TGI (U251 glioblastoma) was 25.1 µM, the GI50 (COLO 205 colon) was 2.73 µM and the TGI (COLO 205 colon) was 6.51 µM. The GI50 (HCT-116 colon) was 3.39 µM, the TGI (HCT-116 colon) was 12.3 µM and the GI50 (SF-268 CNS) was 7.57 µM. For the same molecule, the TGI (SF-268 CNS) was 38.3 µM, the GI50 (SN12C renal) was 4.54 µM and the TGI (SN12C renal) was 16.7 µM. It also gave a GI50 (A549 NSCLC) of 4.21 µM, a TGI (A549 NSCLC) of 36.5 µM and a GI50 (SK-MEL-2 melanoma) of 3.84 µM. The TGI (SK-MEL-2 melanoma) was 16.8 µM, the GI50 (NCI-H460 NSCLC) was 3.73 µM and the TGI (NCI-H460 NSCLC) was 12.5 µM. For the same molecule, the GI50 (LOX IMVI melanoma) was 0.881 µM, the TGI (LOX IMVI melanoma) was 3.47 µM and the GI50 (A498 renal) was 3.12 µM. The TGI (A498 renal) was 9.79 µM, the GI50 (OVCAR-3 ovarian) was 6.11 µM and the TGI (OVCAR-3 ovarian) was 18 µM. The GI50 (MCF7 breast) was 2.31 µM, the TGI (MCF7 breast) was 8.7 µM and the GI50 (IGROV1 ovarian) was 4.45 µM. For the same molecule, the TGI (IGROV1 ovarian) was 16.7 µM, the GI50 (HCT-15 colon) was 2.97 µM and the TGI (HCT-15 colon) was 20.2 µM. The GI50 (T-47D breast) was 1.49 µM, the TGI (T-47D breast) was 6.16 µM and the GI50 (SK-MEL-28 melanoma) was 6.9 µM. The TGI (SK-MEL-28 melanoma) was 19.7 µM, the GI50 (CAKI-1 renal) was 3.71 µM and the TGI (CAKI-1 renal) was 17.6 µM. The GI50 (MDA-MB-231 breast) was 3.47 µM, the TGI (MDA-MB-231 breast) was over 35.4 µM and the GI50 (EKVX NSCLC) was 2.97 µM. For the same molecule, the TGI (EKVX NSCLC) was 31.6 µM, the GI50 (M14 melanoma) was 4.42 µM and the TGI (M14 melanoma) was 19.2 µM. For the same molecule, the GI50 (SW-620 colon) was 2.97 µM, the TGI (SW-620 colon) was 11.5 µM and the GI50 (SR leukemia) was 1.58 µM. It also gave a TGI (SR leukemia) of 3.02 µM, a GI50 (UACC-62 melanoma) of 4.42 µM and a TGI (UACC-62 melanoma) of 17.8 µM. The GI50 (K-562 leukemia) was 1.12 µM, the TGI (K-562 leukemia) was 2.79 µM and the GI50 (SF-539 CNS) was 2.17 µM. For the same molecule, the TGI (SF-539 CNS) was 12.2 µM, the GI50 (SNB-75 CNS) was 2.16 µM and the TGI (SNB-75 CNS) was 7.03 µM. For the same molecule, the GI50 (RXF 393 renal) was 1.03 µM, the TGI (RXF 393 renal) was 3.02 µM and the GI50 (HCC-2998 colon) was 2.15 µM. The TGI (HCC-2998 colon) was 3.82 µM, the GI50 (CCRF-CEM leukemia) was 2.78 µM and the TGI (CCRF-CEM leukemia) was 10.2 µM. The GI50 (ACHN renal) was 3.7 µM, the TGI (ACHN renal) was 13.9 µM and the GI50 (HOP-92 NSCLC) was 2.66 µM. It also gave a TGI (HOP-92 NSCLC) of 10.2 µM, a GI50 (OVCAR-5 ovarian) of 5.61 µM and a TGI (OVCAR-5 ovarian) of 29.5 µM. It also gave a GI50 (PC-3 prostate) of 2.86 µM, a TGI (PC-3 prostate) of 13.9 µM and a GI50 (HL-60(TB) leukemia) of 2.24 µM. The TGI (HL-60(TB) leukemia) was 4.94 µM, the GI50 (KM12 colon) was 4.11 µM and the TGI (KM12 colon) was 28.1 µM. The GI50 (NCI-H226 lung) was 3.51 µM, the TGI (NCI-H226 lung) was 28.2 µM and the GI50 (MDA-MB-468 breast) was 1.12 µM. For the same molecule, the TGI (MDA-MB-468 breast) was 3.03 µM, the GI50 (SF-295 CNS) was 3.72 µM and the TGI (SF-295 CNS) was 19.9 µM. The GI50 ([…]-0 renal) was 1.76 µM, the TGI (786-0 renal) was 3.37 µM and the GI50 (SNB-19 CNS) was 5.93 µM. For the same molecule, the TGI (SNB-19 CNS) was 24.4 µM, the GI50 (UACC-257 melanoma) was 2.1 µM and the TGI (UACC-257 melanoma) was 4.76 µM. The GI50 (MDA-MB-435 melanoma) was 7.13 µM, the TGI (MDA-MB-435 melanoma) was 27 µM and the GI50 (MOLT-4 leukemia) was 1.38 µM. The TGI (MOLT-4 leukemia) was 2.73 µM, the GI50 (HOP-62 NSCLC) was 3.14 µM and the TGI (HOP-62 NSCLC) was over 50.1 µM. For the same molecule, the GI50 (SK-MEL-5 melanoma) was 1.85 µM, the TGI (SK-MEL-5 melanoma) was 3.98 µM and the GI50 (NCI-H23 lung) was 2.23 µM. For the same molecule, the TGI (NCI-H23 lung) was 14.2 µM.
`C=CC(=O)Nc1cc(Nc2nccc(-c3cn(C)c4ccccc34)n2)c(OC)cc1N(C)CCN(C)C` gave a GI50 (HS 578T breast) of 1.55 µM, a TGI (HS 578T breast) of 3.04 µM and a GI50 (U251 glioblastoma) of 1.8 µM. For the same molecule, the TGI (U251 glioblastoma) was 3.25 µM, the GI50 (COLO 205 colon) was 1.59 µM and the TGI (COLO 205 colon) was 2.95 µM. It also gave a GI50 (HCT-116 colon) of 1.61 µM, a TGI (HCT-116 colon) of 3.02 µM and a GI50 (SF-268 CNS) of 1.49 µM. The TGI (SF-268 CNS) was 3.23 µM, the GI50 (SN12C renal) was 1.33 µM and the TGI (SN12C renal) was 3.13 µM. The GI50 (A549 NSCLC) was 1.34 µM, the TGI (A549 NSCLC) was 3.59 µM and the GI50 (SK-MEL-2 melanoma) was 0.354 µM. It also gave a TGI (SK-MEL-2 melanoma) of 1.2 µM, a GI50 (NCI-H460 NSCLC) of 1.76 µM and a TGI (NCI-H460 NSCLC) of 3.19 µM. The GI50 (LOX IMVI melanoma) was 2.06 µM, the TGI (LOX IMVI melanoma) was 3.5 µM and the GI50 (A498 renal) was 1.12 µM. For the same molecule, the TGI (A498 renal) was 2.53 µM, the GI50 (OVCAR-3 ovarian) was 1.13 µM and the TGI (OVCAR-3 ovarian) was 2.46 µM. It also gave a GI50 (MCF7 breast) of 1.18 µM, a TGI (MCF7 breast) of 2.58 µM and a GI50 (IGROV1 ovarian) of 0.44 µM. For the same molecule, the TGI (IGROV1 ovarian) was 1.88 µM, the GI50 (HCT-15 colon) was 1.25 µM and the TGI (HCT-15 colon) was 2.6 µM. It also gave a GI50 (T-47D breast) of 0.957 µM, a TGI (T-47D breast) of 2.38 µM and a GI50 (SK-MEL-28 melanoma) of 1.66 µM. The TGI (SK-MEL-28 melanoma) was 3.04 µM, the GI50 (CAKI-1 renal) was 0.703 µM and the TGI (CAKI-1 renal) was 2.08 µM. The GI50 (MDA-MB-231 breast) was 1.79 µM, the TGI (MDA-MB-231 breast) was 3.21 µM and the GI50 (EKVX NSCLC) was 0.617 µM. It also gave a TGI (EKVX NSCLC) of 2.17 µM, a GI50 (M14 melanoma) of 1.96 µM and a TGI (M14 melanoma) of 3.39 µM. For the same molecule, the GI50 (SW-620 colon) was 1.76 µM, the TGI (SW-620 colon) was 3.18 µM and the GI50 (SR leukemia) was 0.602 µM. The TGI (SR leukemia) was 1.29 µM, the GI50 (UACC-62 melanoma) was 1.64 µM and the TGI (UACC-62 melanoma) was 3.02 µM. It also gave a GI50 (K-562 leukemia) of 1.16 µM, a TGI (K-562 leukemia) of 2.39 µM and a GI50 (SF-539 CNS) of 1.44 µM. The TGI (SF-539 CNS) was 2.76 µM, the GI50 (SNB-75 CNS) was 2.71 µM and the TGI (SNB-75 CNS) was 6.41 µM. The GI50 (RXF 393 renal) was 0.806 µM, the TGI (RXF 393 renal) was 2.15 µM and the GI50 (HCC-2998 colon) was 0.767 µM. For the same molecule, the TGI (HCC-2998 colon) was 2 µM, the GI50 (CCRF-CEM leukemia) was 1.39 µM and the TGI (CCRF-CEM leukemia) was 2.69 µM. For the same molecule, the GI50 (ACHN renal) was 0.453 µM, the TGI (ACHN renal) was 2.21 µM and the GI50 (HOP-92 NSCLC) was 1.15 µM. For the same molecule, the TGI (HOP-92 NSCLC) was 2.38 µM, the GI50 (OVCAR-5 ovarian) was 1.62 µM and the TGI (OVCAR-5 ovarian) was 3.93 µM. For the same molecule, the GI50 (PC-3 prostate) was 1.61 µM, the TGI (PC-3 prostate) was 3.09 µM and the GI50 (HL-60(TB) leukemia) was 0.756 µM. The TGI (HL-60(TB) leukemia) was 1.94 µM, the GI50 (KM12 colon) was 2.56 µM and the TGI (KM12 colon) was 5.72 µM. For the same molecule, the GI50 (NCI-H226 lung) was 0.863 µM, the TGI (NCI-H226 lung) was 2.2 µM and the GI50 (MDA-MB-468 breast) was 0.0378 µM. For the same molecule, the TGI (MDA-MB-468 breast) was 0.189 µM, the GI50 (SF-295 CNS) was 2.62 µM and the TGI (SF-295 CNS) was 6.33 µM. The GI50 ([…]-0 renal) was 1.31 µM, the TGI (786-0 renal) was 2.6 µM and the GI50 (SNB-19 CNS) was 3.02 µM. For the same molecule, the TGI (SNB-19 CNS) was 8.81 µM, the GI50 (UACC-257 melanoma) was 0.84 µM and the TGI (UACC-257 melanoma) was 1.58 µM. For the same molecule, the GI50 (MDA-MB-435 melanoma) was 2 µM, the TGI (MDA-MB-435 melanoma) was 3.55 µM and the GI50 (MOLT-4 leukemia) was 0.921 µM. For the same molecule, the TGI (MOLT-4 leukemia) was 2.15 µM, the GI50 (HOP-62 NSCLC) was 1.56 µM and the TGI (HOP-62 NSCLC) was 3.37 µM. The GI50 (SK-MEL-5 melanoma) was 1.22 µM, the TGI (SK-MEL-5 melanoma) was 2.23 µM and the GI50 (NCI-H23 lung) was 1.87 µM. It also gave a TGI (NCI-H23 lung) of 3.67 µM.

From PubChem BioAssay (NCI)
